Molecular target: hDHODH (Homo sapiens, UniProt Q02127)
Test: Determination of hDHODH enzymatic inhibitory activity
Type: biochemical
Settings: compound final concentration 1 μM; purified hDHODH 40 nM; absorbance 600 nm
Method: Determination of hDHODH Enzymatic Inhibitory Activity of Compounds
Assay buffer preparation: 100 mM HEPES buffer, 150 mM NaCl, 10% glycerol, and 0.1% Triton X-100 were mixed, adjusted to pH-8.0. A resulting mixture was diluted with Milli-Q water, and then stored at 4° C. A total volume of the enzyme activity detection system was 60 μL. The procedure was performed as follows: 1 μL of the small-molecule solution (with a final concentration of 1 μM) was added to a 96-well enzyme plate. 39 μL of a mixture containing the purified hDHODH protein (with a final concentration of 40 nM), 2,6-dichloroindophenol sodium salt (with a final concentration of 100 μM), coenzyme Q (CoQ, with a final concentration of 20 μM) were added thereto. The plate was protected from light and incubated at 37° C. with gentle shaking for 30 min. After the incubation was completed, 20 μL of dihydroorotate (DHO, with a final concentration of 200 μM) was added to each well. Absorbance was immediately measured using a microplate reader having the following procedure: kinetic assay: wavelength: 600 nm, total duration: 10 min, interval: every 20 s. Controls: negative control: Dimethyl sulfoxide (DMSO) (equal volume) without inhibitor; blank control: ultra-pure water (equal volume) without DHO substrate. All assays were conducted in triplicate. […]

hDHODH, sequence (Q02127 whole entry): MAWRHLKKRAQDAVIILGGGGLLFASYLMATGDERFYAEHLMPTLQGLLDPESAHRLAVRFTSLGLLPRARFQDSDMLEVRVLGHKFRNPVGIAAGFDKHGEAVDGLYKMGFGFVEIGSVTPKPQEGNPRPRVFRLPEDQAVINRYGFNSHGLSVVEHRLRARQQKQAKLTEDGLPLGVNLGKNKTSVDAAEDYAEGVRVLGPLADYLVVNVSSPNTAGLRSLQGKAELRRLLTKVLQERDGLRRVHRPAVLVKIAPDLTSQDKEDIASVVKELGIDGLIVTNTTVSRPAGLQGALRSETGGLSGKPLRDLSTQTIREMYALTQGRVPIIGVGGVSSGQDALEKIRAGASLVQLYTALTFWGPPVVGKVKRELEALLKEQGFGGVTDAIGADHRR

Fc1ccccc1Cn1nc(-c2ccc(C3CC3)cn2)c2cccnc21 [Compound D11]
inhibition at 1 µM: 48.3%
